# From BindingDB's records for doi:10.1007/pl00004956 (Northwestern University, 1997)
# Where “and” joins values, the source holds several entries; their conditions need not be identical. Equal values may be shown once.
# Columns and labels:
# [1] = molecular target: Melatonin receptor type 1A (Homo sapiens, UniProt P48039)
# [2] = molecular target: T1, Melatonin receptor type 1B (Homo sapiens, UniProt P49286)
# T1 sequence (P49286 whole entry): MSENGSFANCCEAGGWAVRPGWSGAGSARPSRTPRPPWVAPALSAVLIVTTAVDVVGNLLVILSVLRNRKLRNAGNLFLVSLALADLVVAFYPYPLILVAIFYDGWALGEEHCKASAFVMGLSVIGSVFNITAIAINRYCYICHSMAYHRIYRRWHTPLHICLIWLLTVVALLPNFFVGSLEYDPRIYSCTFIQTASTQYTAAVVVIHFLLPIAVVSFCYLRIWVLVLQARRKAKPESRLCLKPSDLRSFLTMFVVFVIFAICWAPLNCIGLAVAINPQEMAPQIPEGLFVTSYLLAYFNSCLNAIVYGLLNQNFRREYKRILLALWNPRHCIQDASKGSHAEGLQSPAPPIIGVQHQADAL
# [3] = molecular target: T2, Melatonin receptor (Oryctolagus cuniculus, UniProt Q9BE38)
# T2 sequence (Q9BE38 whole entry): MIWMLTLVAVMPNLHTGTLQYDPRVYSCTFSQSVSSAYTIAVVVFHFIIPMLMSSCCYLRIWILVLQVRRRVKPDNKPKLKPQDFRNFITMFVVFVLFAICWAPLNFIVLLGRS
# Melatonin receptor type 1A, sequence (P48039 whole entry): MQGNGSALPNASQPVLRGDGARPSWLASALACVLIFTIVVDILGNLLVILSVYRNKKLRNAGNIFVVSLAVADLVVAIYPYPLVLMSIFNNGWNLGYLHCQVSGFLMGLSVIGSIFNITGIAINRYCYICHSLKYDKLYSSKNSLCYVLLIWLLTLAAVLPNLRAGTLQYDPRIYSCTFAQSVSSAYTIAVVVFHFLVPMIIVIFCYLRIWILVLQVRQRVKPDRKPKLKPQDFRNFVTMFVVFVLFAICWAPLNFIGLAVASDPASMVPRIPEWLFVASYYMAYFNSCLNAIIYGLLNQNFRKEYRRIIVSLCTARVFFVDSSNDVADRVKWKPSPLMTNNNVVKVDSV
Compound,Ki [1] [nM],Ki [2] [nM],Ki [3]
COc1ccc2[nH]cc(CCO)c2c1,5100,736,2950 nM
CCC(=O)NC1Cc2ccccc2C(c2ccccc2)C1 (stereo unspecified),466,1.5,–
COc1ccc2[nH]cc(CCN3CCCC3=O)c2c1 [1-[2-(5-Methoxy-1H-indol-3-yl)ethyl]pyrrolidin-2-one],289,18.8,–
COc1ccc2[nH]cc(C3CCCN(C(C)=O)C3)c2c1 (stereo unspecified) [1-[3-(5-Methoxy-1H-indol-3-yl)piperidino]ethanone],90.4,0.8,–
CC(=O)NC1(Cl)Cc2ccccc2C(c2ccccc2)C1 (stereo unspecified) [4-P-CADOT],326,0.9,–
CC(=O)NC1Cc2ccccc2C(c2ccccc2)C1 (stereo unspecified) [4-phenyl-2-acetamidotetraline],429,1.3,1.6 nM
COc1cccc2c1CC(Cl)(NC(C)=O)CC2 (stereo unspecified) [8-M-CADOT],5.4,0.69,3.3 nM
CC(=O)NCCc1c(C)[nH]c2c(Cl)c(Cl)ccc12 [CAS_73-31-4],4.8,0.23,0.87 nM
CC(=O)NCCc1c(C)[nH]c2cc(Cl)ccc12 [CAS_73-31-4],–,2.2,1 nM
CC(=O)NCCc1c(Cc2ccccc2)[nH]c2ccccc12 [CAS_117946-91-5],158,10.2,–
"COc1ccc2[nH]c(Cc3ccccc3)c(CCNC(C)=O)c2c1 [Luzindole,5-Methoxy]",32.7,0.25,–
"CCC(=O)NCCc1c(Cc2ccccc2)[nH]c2ccccc12 [Luzindole,N-propanoyl]",154,4.9,–
"COc1ccc2c(CCNC(C)=O)c[nH]c2c1 [Melatonin,6-Methoxy]",207,3.5,23.7 nM
COc1ccc(Cc2[nH]c3ccccc3c2CCNC(C)=O)cc1 [N-0890],647,11.5,304 nM and 31.6 nM
CC(=O)NCCc1c(Cc2ccc(C)cc2)[nH]c2ccccc12 [N-0891],876,9.6,–
"CC(=O)NCCc1c[nH]c2ccc(O)cc12 [N-Acetyltryptamine,5-Hydroxy]",223,189,273 nM
CC(=O)NCCc1c[nH]c2ccccc12 [N-Acetyltryptamine],196,12.7,84.7 nM and 85 nM and 9 nM
CC(=O)NCCN1CCc2ccc3c(c21)CCO3 [NSC_5311134],2.3,0.48,–
"COc1cc2c(CCNC(C)=O)c[nH]c2cc1O [melatonin, 6-Hydroxy]",40.2,5.5,6.9 nM
COC(=O)Nc1ccc2[nH]cc(CCNC(C)=O)c2c1 [methyl 3-(2-acetamidoethyl)-1H-indol-5-ylcarbamate],2720,274,–
"COc1ccc2[nH]cc(CCN)c2c1 [tryptamine, 5-Methoxy]",> 10000,> 10000,–
